31 molecules from US7102009B2, “Substituted amine derivatives and methods of use” (Amgen Inc., priority 2001, dated 2006) can be followed below.

Molecules are shown by their SMILES.

The subject of the assay is Human Umbilical Vein Endothelial cells (VEGF-stimulated HUVEC proliferation). Put plainly: HUVEC Proliferation Assay (VEGF-stimulated). To be noted: VEGF 50 ng/mL, 72 h incubation, CyQuant readout, read-out: inhibited VEGF-stimulated HUVEC proliferation at a level below (IC50). Type of assay: cell-based. The method, then:
Human Umbilical Vein Endothelial cells are purchased from Clonetics, Inc., as cryopreserved cells harvested from a pool of donors. These cells, at passage 1, are thawed and expanded in EBM-2 complete medium, until passage 2 or 3. The cells are trypsinized, washed in DMEM+10% FBS+antibiotics, and spun at 1000 rpm for 10 min. Prior to centrifugation of the cells, a small amount is collected for a cell count. After centrifugation, the medium is discarded, and the cells are resuspended in the appropriate volume of DMEM+10% FBS+antibiotics to achieve a concentration of 3×10^5 cells/mL. Another cell count is performed to confirm the cell concentration. The cells are diluted to 3×10^4 cells/mL in DMEM+10% FBS+antibiotics, and 100 μL of cells are added to a 96-well plate. The cells are incubated at 37° C. for 22 h.
Prior to the completion of the incubation period, compound dilutions are prepared. Five-point, five-fold serial dilutions are prepared in DMSO, at concentrations 400-fold greater than the final concentrations desired. 2.5 μL of each compound dilution are diluted further in a total of 1 mL DMEM+10% FBS+antibiotics (400× dilution). Medium containing 0.25% DMSO is also prepared for the 0 μM compound sample. At the 22-hour timepoint, the medium is removed from the cells, and 100 μL of each compound dilution is added. The cells are incubated at 37° C. for 2-3 h.
During the compound pre-incubation period, the growth factors are diluted to the appropriate concentrations. Solutions of DMEM+10% FBS+antibiotics, containing either VEGF or bFGF at the following concentrations: 50, 10, 2, 0.4, 0.08, and 0 ng/mL are prepared. For the compound-treated cells, solutions of VEGF at 550 ng/mL or bFGF at 220 ng/mL for 50 ng/mL or 20 ng/mL final concentrations, respectively, are prepared since 10 μL of each will be added to the cells (110 μL final volume). At the appropriate time after adding the compounds, the growth factors are added. VEGF is added to one set of plates, while bFGF is added to another set of plates. For the growth factor control curves, the media on wells B4-G6 of plates 1 and 2 are replaced with media containing VEGF or bFGF at the varying concentrations (50-0 ng/mL). The cells are incubated at 37° C. for an additional 72 h.
At the completion of the 72 h incubation period, the medium is removed, and the cells are washed twice with PBS. After the second wash with PBS, the plates are tapped gently to remove excess PBS, and the cells are placed at −70° C. for at least 30 min. The cells are thawed and analyzed using the CyQuant fluorescent dye (Molecular Probes C-7026), following the manufacturer's recommendations. The plates are read on a Victor/Wallac 1420 workstation at 485 nm/530 nm (excitation/emission). Raw data are collected and analyzed using a 4-parameter fit equation in XLFit. IC50 values are then determined.

Take `O=C(Nc1ccc(Cl)cc1)c1cccnc1Nc1ccc2cn[nH]c2c1` [Example 3, N-(4-Chlorophenyl)[2-(1H-indazol-6-ylamino)(3-pyridyl)]carboxamide]: the IC50 was less than 50 nM. `CC(C)c1ccc(NC(=O)c2cccnc2Nc2ccc3cn[nH]c3c2)cc1` [Example 5, 2-(1H-Indazol-6-ylamino)-N-(4-isopropyl-phenyl)nicotinamide]: the IC50 was less than 50 nM.

On to `CC(C)c1cccc(NC(=O)c2cccnc2Nc2ccc3cn[nH]c3c2)c1` [Example 6, [2-(1H-Indazol-6-ylamino)(3-pyridyl)]-N-[3-(methylethyl)phenyl]carboxamide], for which the IC50 is less than 50 nM. In the case of `CCC(C)c1ccc(NC(=O)c2cccnc2Nc2ccc3cn[nH]c3c2)cc1` (stereo not shown) [Example 7, [2-(1H-Indazol-6-ylamino)(3-pyridyl)]-N-[4-(methylpropyl)phenyl]carboxamide], the IC50 was less than 50 nM. Regarding `CC(C)(C)c1ccc(NC(=O)c2cccnc2Nc2ccc3cn[nH]c3c2)cc1` [Example 8, N-[4-(tert-Butyl)phenyl][2-(1H-indazol-6-ylamino)(3-pyridyl)]carboxamide], the IC50 is less than 50 nM. As for `O=C(Nc1cccc(C(F)(F)F)c1)c1cccnc1Nc1ccc2cn[nH]c2c1` [Example 9, [2-(1H-Indazol-6-ylamino)(3-pyridyl)]-N-[3-(trifluoromethyl)phenyl]carboxamide], the figure is less than 50 nM; as for `CC(C)(C)c1cccc(NC(=O)c2cccnc2Nc2ccc3cn[nH]c3c2)c1` [Example 10, N-[3-(tert-Butyl)phenyl][2-(1H-indazol-6-ylamino)(3-pyridyl)]carboxamide], less than 50 nM. The same measure for `NS(=O)(=O)c1cc(NC(=O)c2cccnc2Nc2ccc3cn[nH]c3c2)ccc1Cl` [Example 13, N-3-aminosulfonyl(4-chloro-phenyl)[2-(1H-indazol-6-ylamino)(3-pyridyl)]carboxamide]: less than 50 nM. Turning to `Cc1cc(=O)[nH]c2cc(NC(=O)c3cccnc3Nc3ccc4cn[nH]c4c3)ccc12` [Example 14, [2-(1H-Indazol-6-ylamino)(3-pyridyl)]-N-(4-methyl-2-oxo-1,2-dihydroquinol-7-yl)carboxamide], the IC50 is less than 50 nM. `O=C(Nc1ccc(C(F)(F)C(F)(F)C(F)(F)C(F)(F)F)cc1)c1cccnc1Nc1ccc2cn[nH]c2c1` [Example 20, [2-(1H-Indazol-6-ylamino)(3-pyridyl)]-N-[4-(1,1,2,2,3,3,4,4,4-nonafluorobutyl)phenyl]carboxamide]: the IC50 was less than 50 nM.

Take `CC(C)(C)c1ccc(NC(=O)c2cccnc2Nc2ccc3cn[nH]c3c2Br)cc1` [Example 22, N-[4-(tert-Butyl)phenyl]{2-[(7-bromo(1H-indazol-6-yl))amino](3-pyridyl)}carboxamide]: the IC50 was less than 50 nM. The same measure for `CN1CC=C(c2cc(NC(=O)c3cccnc3Nc3ccc4cn[nH]c4c3)ccc2C(C)(C)C)CC1` [Example 23]: less than 50 nM; for `O=C(Nc1ccc(C(O)(C(F)(F)F)C(F)(F)F)cc1)c1cccnc1Nc1ccc2cn[nH]c2c1` [Example 24]: less than 50 nM; for `COc1ccc(C(C)(C)C)cc1NC(=O)c1cccnc1Nc1ccc2cn[nH]c2c1` [Example 25, N-[5-(tert-Butyl)-2-methoxyphenyl][2-(1H-indazol-6-ylamino)(3-pyridyl)]carboxamide]: less than 50 nM. Regarding `O=C1NCCc2ccc(NC(=O)c3cccnc3Nc3ccc4cn[nH]c4c3)cc21` [Example 27, 2-(1H-Indazol-6-ylamino)-N-(1-oxo-1,2,3,4-tetrahydro-isoguinolin-7-yl)-nicotinamide], the IC50 was less than 50 nM. For `CC(C)Oc1ccc(NC(=O)c2cccnc2Nc2ccc3cn[nH]c3c2)cc1` [Example 28, [2-(1H-Indazol-6-ylamino)(3-pyridyl)]-N-[4-(methylethoxy)phenyl]carboxamide], the IC50 was less than 50 nM. In the case of `CN1CCN(c2cc(NC(=O)c3cccnc3Nc3ccc4cn[nH]c4c3)ccc2C(C)(C)C)CC1` [Example 31, N-[4-(tert-Butyl)-3-(4-methylpiperazinyl)phenyl][2-(1H-indazol-6-ylamino)(3-pyridyl)]carboxamide], the IC50 is less than 50 nM. As for `COc1ccc(NC(=O)c2cccnc2Nc2ccc3cn[nH]c3c2)cc1O` [Example 36, N-(3-Hydroxy-4-methoxyphenyl)[2-(1H-indazol-6-ylamino)(3-pyridyl)]carboxamide], the figure is less than 50 nM; as for `COc1ccc(NC(=O)c2cccnc2Nc2ccc3cn[nH]c3c2)cc1OCCN(C)C` [Example 37, N-{3-[2-(Dimethylamino)ethoxy]-4-methoxyphenyl)[2-(1H-indazol-6-ylamino)(3-pyridyl)]carboxamide], less than 50 nM; as for `COc1ccc(NC(=O)c2cccnc2Nc2ccc3cn[nH]c3c2)cc1OC1CCN(C)CC1` [Example 38, [2-(1H-Indazol-6-ylamino)(3-pyridyl)]-N-[4-methoxy-3-(1-methyl(4-piperidyl)oxy)phenyl]carboxamide], less than 50 nM. As for `O=C(Nc1ccc2c(c1)-c1nncn1CC2)c1cccnc1Nc1ccc2cn[nH]c2c1` [Example 39, [2-(1H-Indazol-6-ylamino)(3-pyridyl)]-N-(5,6,7-trihydro-1,2,4-triazolo[3,4-a]isoquinolin-2-yl)carboxamide], the figure is less than 50 nM; as for `CN(C)CCOc1n[nH]c2cc(Nc3ncccc3C(=O)Nc3ccc(C(C)(C)C)cc3)ccc12` [Example 40, [2-({3-[2-(Dimethylamino)ethoxy](1H-indazol-6-yl)}amino)(3-pyridyl)]-N-[4-(tert-butyl)phenyl]carboxamide], less than 50 nM. For `CC1(C)CN(CC2CCNCC2)c2cc(NC(=O)c3cccnc3Nc3ccc4cn[nH]c4c3)ccc21` [Example 41, N-[3,3-Dimethyl-1-(4-piperidylmethyl)indolin-6-yl][2-(1H-indazol-6-ylamino)(3-pyridyl)]carboxamide], the IC50 was less than 50 nM. On to `CN1CCC(CN2CC(C)(C)c3ccc(NC(=O)c4cccnc4Nc4ccc5cn[nH]c5c4)cc32)CC1` [Example 42, N-[3,3-Dimethyl-1-(1-methyl-piperidin-4-ylmethyl)-2,3-dihydro-1H-indol-6-yl]-2-(1H-indazol-6-ylamino)-nicotinamide], for which the IC50 is less than 50 nM.

As to `O=C(Nc1ccc(Oc2ccccc2)cc1)c1cccnc1Nc1ccc2cn[nH]c2c1` [Example 43, 2-(1H-Indazol-6-ylamino)-N-(4-phenoxy-phenyl)-nicotinamide], the IC50 was less than 50 nM. For the molecule `O=C(Nc1ccc(-c2ccccc2)cc1)c1cccnc1Nc1ccc2cn[nH]c2c1` [Example 45, [2-(1H-Indazol-6-ylamino)(3-pyridyl)]-N-(4-phenylphenyl)carboxamide], the IC50 is less than 50 nM. Consider `CS(=O)(=O)c1ccc(NC(=O)c2cccnc2Nc2ccc3cn[nH]c3c2)cc1` [Example 46, [2-(1H-Indazol-6-ylamino)(3-pyridyl)]-N-[4-(methylsulfonyl)phenyl]carboxamide], for which the IC50 is less than 50 nM. As to `CN1CCC(N2CC(C)(C)c3ccc(NC(=O)c4cccnc4Nc4ccc5cn[nH]c5c4)cc32)CC1` [Example 48, N-[3,3-Dimethyl-1-(1-methyl(4-piperidyl))indolin-6-yl][2-(1H-indazol-6-ylamino)(3-pyridyl)]carboxamide], the IC50 is less than 50 nM. As for `O=C(Nc1ccc(C(F)(F)F)cc1)c1cccnc1Nc1ccc2cn[nH]c2c1` [Example 50, [2-(1H-Indazol-6-ylamino)(3-pyridyl)]-N-[4-(trifluoromethyl)phenyl]carboxamide], the figure is less than 50 nM; as for `CN(C)CCCc1cc(NC(=O)c2cccnc2Nc2ccc3cn[nH]c3c2)cc(C(F)(F)F)c1` [Example 51, N-{3-[3-(Dimethylamino)propyl]-5-(trifluoromethyl)phenyl}[2-(1H-indazol-6-ylamino)(3-pyridyl)]carboxamide], less than 50 nM. In the case of `CC(C)(C)c1ccc(NC(=O)c2cccnc2Nc2ccc3cn[nH]c3c2)cc1CCCN1CCCCC1` [Example 54, N-[4-(tert-Butyl)-3-(3-piperidylpropyl)phenyl][2-(1H-indazol-6-ylamino)(3-pyridyl)]carboxamide], the IC50 is less than 50 nM.
